Marks after values point to notes of the source that are not given here.
Tests used:
Assay type in all cases: cell-based, Klebsiella pneumoniae
[1] = test system: K. pneumoniae RamR^mut (K124*stop); test: MIC of antibiotics with and without EPI (REMA), RamR mutant; details: for Minimum Inhibitory Concentration: K. pneumoniae RamR^mut; for MIC: Klebsiella pneumoniae, read-out: Minimum Inhibitory Concentration
Procedure: (§1) MIC experiments were carried out according to the CLSI guidelines (CLSI [2023]). Overnight cultures were diluted to an OD600 = 0.001 in CAMHB followed by addition of efflux pump inhibitors (EPIs) at a final concentration of 100 µM. […] Plates were incubated at 37 °C for up to 20 h. Bacterial viability was evaluated using the resazurin microtitre assay (REMA) and measured by fluorescence using a Tecan Spaert multimode plate reader (Ex: 530 nm Em: 590 nm). MICs were defined as the concentration that prevented 90% of resazurin turnover compared to the non-treated bacteria.
(§2) Mutations in acrB or ramR identified in the BDM88855.HCl (1’) resistant mutant (a.k.a., KPJC11) were introduced individually into K. pneumoniae ATCC 43816 chromosome by allelic exchange (Cianfanelli et al, [2020]). Briefly, 1-kb PCR products centred around each point mutation were generated by amplifying acrB with primers RH1251 ([…][…]) and RH1252 ([…][…]) or ramR with primers RH1249 ([…][…]) and RH1250 ([…][…]) from KPJC11 genomic DNA. PCR fragments were cloned into pFOK (Cianfanelli et al, [2020]) using NEB-building kit ([New England Biolabs]) to generate pEP1533 and pEP1534. Correct plasmids were confirmed by sequencing and introduced into K. pneumoniae ATCC43816 WT via conjugation with the MFDpir+ E. coli donor strain. Exconjugants were selected on kanamycin (50 mg/L) plates at 37 °C and plasmid chromosomal integration was checked by PCR. […] The next day, cultures were diluted and plated onto LB agar. Isolated colonies were then patched onto LB plates with or without kanamycin (50 mg/L) and Km^S candidates were evaluated for correct allelic exchange via acrB or ramR sequencing and then WGS to confirm no additional mutations were introduced.

K. pneumoniae AcrB^V448E = test: MIC of antibiotics with and without EPI (REMA), AcrB V448E mutant; details: for Minimum Inhibitory Concentration: K. pneumoniae AcrB^V448E; for MIC: Klebsiella pneumoniae, read-out: Minimum Inhibitory Concentration
Procedure: as §1, §2

[2] = test system: K. pneumoniae ATCC 43816 (WT); test: MIC of antibiotics with and without EPI (REMA), WT strain; details: K. pneumoniae WT; for MIC: Klebsiella pneumoniae, ATCC43816, No EPI, read-out: Minimum Inhibitory Concentration
Procedure: Overnight cultures were diluted to an OD600 = 0.001 in CAMHB followed by addition of efflux pump inhibitors (EPIs) at a final concentration of 100 µM. […] Plates were incubated at 37 °C for up to 20 h. […] MICs were defined as the concentration that prevented 90% of resazurin turnover compared to the non-treated bacteria.

[3] = test system: K. pneumoniae AcrB^V448E RamR^mut; test: MIC of antibiotics with and without EPI (REMA), double mutant; details: for Minimum Inhibitory Concentration: K. pneumoniae AcrB^V448E RamR^mut; for MIC: Klebsiella pneumoniae, read-out: Minimum Inhibitory Concentration
Procedure: as §1

Row | SMILES | Minimum Inhibitory Concentration ([1]; + 100 µM 1') | Minimum Inhibitory Concentration ([1]; + 100 µM 5) | Minimum Inhibitory Concentration ([1]; + 100 µM PAβN) | MIC [1] | Minimum Inhibitory Concentration (K. pneumoniae AcrB^V448E; + 100 µM 1') | Minimum Inhibitory Concentration (K. pneumoniae AcrB^V448E; + 100 µM 5) | Minimum Inhibitory Concentration (K. pneumoniae AcrB^V448E; + 100 µM PAβN) | MIC (K. pneumoniae AcrB^V448E) | Minimum Inhibitory Concentration ([2]; + 100 µM 1') | Minimum Inhibitory Concentration ([2]; + 100 µM 5) | Minimum Inhibitory Concentration ([2]; + 100 µM PAβN) | MIC [2] | Minimum Inhibitory Concentration ([3]; + 100 µM 1') | Minimum Inhibitory Concentration ([3]; + 100 µM 5) | Minimum Inhibitory Concentration ([3]; + 100 µM PAβN) | Minimum Inhibitory Concentration ([3]; No EPI) | Minimum Inhibitory Concentration ([1]; No EPI) | Minimum Inhibitory Concentration (K. pneumoniae AcrB^V448E; No EPI) | MIC [3]
1 | CC(C)(O/N=C(\C(=O)N[C@@H]1C(=O)N2C(C(=O)[O-])=C(C[n+]3ccccc3)CS[C@H]12)c1csc(N)n1)C(=O)O [Ceftazidime] | 1.1 mg/L | 0.64^# mg/L | 0.64^# mg/L | 1.3 µg/mL | 0.37^# mg/L | 0.32^# mg/L | 0.53 mg/L | 0.85 µg/mL | 0.32 mg/L | 0.53 mg/L | 0.32 mg/L | 0.43 µg/mL | 1.28 mg/L | 1.28 mg/L | 1.28 mg/L | 1.28 mg/L |  |  | 
2 | O=C(N[C@H](CO)[C@H](O)c1ccc([N+](=O)[O-])cc1)C(Cl)Cl [Chloramphenicol] | 2.7^# mg/L | 4.7^# mg/L | 2.7^# mg/L | 53 µg/mL | 2.0^# mg/L | 4.7 mg/L | 2.0^# mg/L | 6.7 µg/mL | 1.0^# mg/L | 1.0^# mg/L | 1.7^# mg/L | 4 µg/mL | 128 mg/L | 128 mg/L | 5.3^# mg/L | 128 mg/L |  |  | 
3 | CC(=O)O[C@H]1C[C@@]2(C)[C@@H](C[C@@H](O)[C@H]3[C@@]4(C)CC[C@@H](O)[C@@H](C)[C@@H]4CC[C@@]32C)/C1=C(\CCC=C(C)C)C(=O)O [Fusidic acid] | 128 mg/L | 128 mg/L | 85 mg/L |  | 128 mg/L | 128 mg/L | 32^# mg/L |  | 85 mg/L | 128 mg/L | 21^# mg/L | 128 µg/mL | 128 mg/L | 128 mg/L | 107 mg/L | 128 mg/L | 128 mg/L | 128 mg/L | 
4 | CC(=O)NC[C@H]1CN(c2ccc(N3CCOCC3)c(F)c2)C(=O)O1 [Linezolid] | 128 mg/L | 107 mg/L | 128 mg/L |  | 85 mg/L | 128 mg/L | 64^# mg/L |  | 13^# mg/L | 27^# mg/L | 64^# mg/L | 128 µg/mL | 128 mg/L | 128 mg/L | 128 mg/L | 128 mg/L | 128 mg/L | 128 mg/L | 
5 | C[C@@H](O)[C@H]1C(=O)N2C(C(=O)O)=C(S[C@@H]3CN[C@H](C(=O)N(C)C)C3)[C@H](C)[C@H]12 [Meropenem] | 0.50 mg/L | 0.50 mg/L | 0.50 mg/L | 0.5 µg/mL | 0.67 mg/L | 0.50 mg/L | 0.50 mg/L | 0.5 µg/mL | 0.50 mg/L | 0.50 mg/L | 0.50 mg/L | 0.5 µg/mL | 0.50 mg/L | 0.50 mg/L | 1.0 mg/L |  |  |  | 0.67 µg/mL
6 | CO[C@@H]1[C@@H](OC(N)=O)[C@@H](O)[C@H](Oc2ccc3c(O)c(NC(=O)c4ccc(O)c(CC=C(C)C)c4)c(=O)oc3c2C)OC1(C)C [Novobiocin] | 128 mg/L | 85 mg/L | 43^# mg/L |  | 64^# mg/L | 32^# mg/L | 16^# mg/L |  | 13^# mg/L | 13^# mg/L | 11^# mg/L | 64 µg/mL | 128 mg/L | 128 mg/L | 8^# mg/L | 128 mg/L | 128 mg/L | 128 mg/L | 
7 | CCN1CCN(C(=O)N[C@@H](C(=O)N[C@@H]2C(=O)N3[C@@H]2SC(C)(C)[C@@H]3C(=O)O)c2ccccc2)C(=O)C1=O [Piperacillin] | 16 mg/L | 6.7^# mg/L | 21 mg/L | 27 µg/mL | 5.3^# mg/L | 5.3^# mg/L | 13 mg/L | 16 µg/mL | 5.3 mg/L | 4.0^# mg/L | 8.0 mg/L | 8 µg/mL | 37 mg/L | 21 mg/L | 43 mg/L |  |  |  | 21 µg/mL
